Test results reported in patent US20150073005A1, “COMPOSITION FOR HAIR GROWTH” (ASAHI GLASS COMPANY, LIMITED, priority 2012, published 2015).

Test system: C3H/HeNSIc mouse
Details: in vivo
From the text: Hairs on the back of each C3H/HeNSIc mouse (male, 8 weeks old) were carefully dehaired in an area of 2 cm×3 cm to form a medicine application surface. The next day (the day before initiation of the test), mice which were confirmed to have no damage on the application surface of the back, to have a pink color over the entire application surface and to be in the telogen stage of hair growth, were bred in a stainless steel cage (185 W×260 D×175 H (mm)) in three groups each group consisting of 10 mice.
Every day, the application surface was inspected before the application, and the day on which hair growth was observed, was taken as the hair growth day.

SMILES: CC(C)OC(=O)CCC/C=C\C[C@@H]1[C@@H](/C=C/C(F)(F)COc2ccccc2)[C@H](O)C[C@@H]1O [0.0015% Tafluprost, Tafluprost]
- Blackening of the skin at the application surface as visually observed: ^aHair growth without blackening of the skin as visually observed.
